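Compound exposure: 48 hours, 5 concentrations, 96-well plates. GI50 is the concentration that inhibits growth by half.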 Activity calls are given as the source filed them. Rule as the data show it: active = GI50 up to about 1.1 µM and inactive = higher.

Some test systems named below: PC-3; M14; SNB-75; MDA-MB-435; UO-31; A498; K562; CAKI-1; COLO 205; HOP-92; SK-MEL-28; HL-60; IGROV-1; 786-0; RPMI-8226; SN12C; UACC-62; EKVX; NCI/ADR-RES.
Holding throughout (assay): NCI tumour cell line growth inhibition, 48 h

Take `CC1(C)Oc2ccc3ccc(=O)oc3c2C(O)C1O` (stereo unspecified): the GI50 with PC-3 is 31.6 µM (inactive); in the assay with M14, 36.6 µM (inactive); in the assay on SNB-75 it was 38.8 µM (inactive); with MDA-MB-435, 33.7 µM (inactive); in the assay with UO-31, 27.5 µM (inactive); in the assay on A498 it was > 100 µM (inactive). In addition, the GI50 is 37.6 µM (inactive) with K562; 67.1 µM (inactive) in the assay with CAKI-1; 21.8 µM (inactive) in the assay with COLO 205; 57.8 µM (inactive) in the assay on HOP-92; 37.5 µM (inactive) in the assay on SK-MEL-28; 33.3 µM (inactive) in the assay on HL-60. Moreover, the GI50 with IGROV-1 is 33.2 µM (inactive); with 786-0, 45 µM (inactive); in the assay with RPMI-8226, 30.2 µM (inactive); in the assay with SN12C, > 100 µM (inactive); in the assay on UACC-62 it was 8.39 µM (inactive); in the assay with EKVX it was 48.1 µM (inactive). Moreover, the GI50 in the assay with NCI/ADR-RES is 34 µM (inactive).

For `O=C1C(Cl)=C(N2CCN(c3ccccn3)CC2)C(=O)c2c(O)ccc(O)c21`, the GI50 was 1.94 µM (inactive) in the assay on PC-3; 1.46 µM (inactive) in the assay with M14; 1.89 µM (inactive) in the assay on SNB-75; 4.97 µM (inactive) with MDA-MB-435; 1.87 µM (inactive) in the assay on UO-31; 4.25 µM (inactive) with A498. The GI50 in the assay with K562 was 0.512 µM (active); in the assay with CAKI-1, 2.08 µM (inactive); in the assay on COLO 205 it was 1.43 µM (inactive); with HOP-92, 1.21 µM (inactive); in the assay on SK-MEL-28, 1.9 µM (inactive); with HL-60, 0.128 µM (active). Further, the GI50 in the assay on IGROV-1 is 1.63 µM (inactive); in the assay with 786-0, 1.25 µM (inactive); in the assay with RPMI-8226, 0.394 µM (active); with SN12C it was 1.88 µM (inactive); in the assay with UACC-62, 0.752 µM (active); in the assay on EKVX it was 4.27 µM (inactive). In the assay on NCI/ADR-RES, the GI50 was 2.38 µM (inactive).

Take `CC(=O)OC(C)(C)/N=N/c1ccc(Br)cc1`: the GI50 was 24.3 µM (inactive) in the assay on PC-3; 0.277 µM (active) in the assay with M14; > 53.5 µM (inactive) in the assay on SNB-75; 1.08 µM (active) with MDA-MB-435; 0.425 µM (active) in the assay with UO-31; > 87.5 µM (inactive) with A498. Further, the GI50 is 0.0596 µM (active) in the assay on K562; 16.7 µM (inactive) in the assay on CAKI-1; 0.52 µM (active) with COLO 205; 23.7 µM (inactive) in the assay with HOP-92; 3.01 µM (inactive) in the assay with SK-MEL-28; 0.653 µM (active) in the assay on HL-60. The GI50 in the assay with IGROV-1 is 18.7 µM (inactive); in the assay with 786-0, 22.9 µM (inactive); in the assay on RPMI-8226, 0.942 µM (active); with SN12C, 32.7 µM (inactive); in the assay with UACC-62, 0.052 µM (active); in the assay with EKVX, 9.38 µM (inactive). Further, the GI50 in the assay on NCI/ADR-RES is 14.4 µM (inactive).

For `CC(=O)OC1=C(c2ccccc2)S(=O)(=O)c2ccccc21`, the GI50 with PC-3, with M14, with SNB-75, in the assay on MDA-MB-435, in the assay on UO-31 and in the assay on A498 was > 100 µM (inactive) in each case. Also, the GI50 with K562, in the assay on CAKI-1, with COLO 205, in the assay on HOP-92, in the assay on SK-MEL-28 and with HL-60 was > 100 µM (inactive) in each case. Also, the GI50 with IGROV-1, in the assay with 786-0, in the assay on RPMI-8226, with UACC-62, in the assay on EKVX and with NCI/ADR-RES was > 100 µM (inactive) each time.

Consider `O=C(O)C1C2C=CC(C2)C1c1ccccc1` (stereo unspecified), for which the GI50 with PC-3, with M14, with SNB-75, in the assay on MDA-MB-435, with UO-31 and with A498 was > 100 µM (inactive) each time. The GI50 in the assay with K562, in the assay on CAKI-1, with COLO 205, in the assay with HOP-92, in the assay on SK-MEL-28 and with HL-60 was > 100 µM (inactive) in each case. The GI50 with 786-0, in the assay with RPMI-8226, with SN12C, with UACC-62, with EKVX and with NCI/ADR-RES was > 100 µM (inactive) in each case.

For the compound `Nc1cccc(C2CCCc3c2[nH]c2ccccc32)c1` (stereo unspecified), the GI50 was 16.1 µM (inactive) with PC-3; 22.3 µM (inactive) with M14; 11.9 µM (inactive) in the assay with SNB-75; 17.3 µM (inactive) in the assay on MDA-MB-435; 26 µM (inactive) in the assay with UO-31; 15 µM (inactive) with A498. Moreover, the GI50 in the assay with K562 is 13.6 µM (inactive); with CAKI-1, 23.9 µM (inactive); in the assay with COLO 205, 19.8 µM (inactive); in the assay with HOP-92 it was 16.9 µM (inactive); in the assay with SK-MEL-28, 26.5 µM (inactive); in the assay on HL-60 it was 19.5 µM (inactive). The GI50 with IGROV-1 was 17.3 µM (inactive); in the assay with 786-0, 18.2 µM (inactive); in the assay on RPMI-8226, 19.1 µM (inactive); in the assay with SN12C it was 17 µM (inactive); in the assay on UACC-62, 15.6 µM (inactive); with EKVX it was 18.5 µM (inactive). For the same compound, the GI50 in the assay with NCI/ADR-RES is 17.7 µM (inactive).

On to `Cc1oc2c(cc(O)c3cc(O)ccc32)c2cccc1-2`, for which the GI50 in the assay with PC-3, in the assay with M14, in the assay on SNB-75, in the assay on MDA-MB-435, in the assay with UO-31 and in the assay on A498 was > 100 µM (inactive) throughout. Besides, the GI50 in the assay with K562, in the assay on CAKI-1, with COLO 205, with HOP-92, in the assay with SK-MEL-28 and in the assay on HL-60 was > 100 µM (inactive) throughout. Also, the GI50 with IGROV-1, in the assay with 786-0, in the assay with RPMI-8226, in the assay with SN12C, in the assay with UACC-62 and in the assay with EKVX was > 100 µM (inactive) throughout. Also, the GI50 with NCI/ADR-RES was > 100 µM (inactive).

In the case of `COC(=O)C1CN=CN1CCc1ccccc1` (stereo unspecified), the GI50 is > 100 µM (inactive) in the assay with PC-3; > 100 µM (inactive) in the assay with M14; 15.5 µM (inactive) in the assay on SNB-75; > 100 µM (inactive) with MDA-MB-435; > 100 µM (inactive) with UO-31; > 100 µM (inactive) with A498. The GI50 in the assay with K562, with CAKI-1, in the assay with COLO 205, in the assay on HOP-92, with SK-MEL-28 and in the assay on HL-60 was > 100 µM (inactive) each time. For the same compound, the GI50 in the assay with IGROV-1, with 786-0, with RPMI-8226, in the assay on UACC-62, in the assay on EKVX and in the assay with NCI/ADR-RES was > 100 µM (inactive) throughout.

As for `[N-]=[N+]=Nc1ccc2c(c1)Sc1ccccc1N2CCCCN1CCN(C(=O)CCNC(=O)Cc2ccc(C(=O)c3ccccc3)cc2)CC1`, the GI50 was 3.1 µM (inactive) in the assay on PC-3; 4.75 µM (inactive) in the assay on M14; 5.21 µM (inactive) in the assay with SNB-75; 2.2 µM (inactive) in the assay on MDA-MB-435; 5.32 µM (inactive) in the assay on UO-31; 10 µM (inactive) in the assay on A498. Also, the GI50 is 1.68 µM (inactive) in the assay on K562; 8.61 µM (inactive) in the assay with CAKI-1; 3.39 µM (inactive) with COLO 205; 6.71 µM (inactive) with HOP-92; 4.81 µM (inactive) in the assay on SK-MEL-28; 2.54 µM (inactive) with HL-60. Further, the GI50 was 6.1 µM (inactive) in the assay on IGROV-1; 3.76 µM (inactive) in the assay with 786-0; 1.58 µM (inactive) in the assay with RPMI-8226; 7.26 µM (inactive) with SN12C; 6.05 µM (inactive) with UACC-62; 3.18 µM (inactive) with EKVX. Further, in the assay on NCI/ADR-RES, the GI50 was 4.05 µM (inactive).

Take `O=C1CC(Nc2ccccc2)c2c(Cl)sc(Cl)c21` (stereo unspecified): the GI50 was 1.49 µM (inactive) in the assay on PC-3; 1.66 µM (inactive) in the assay on M14; 2.31 µM (inactive) in the assay with SNB-75; 1.52 µM (inactive) with MDA-MB-435; 1.11 µM (active) in the assay on UO-31; 2.5 µM (inactive) in the assay on A498. Further, the GI50 with K562 was 1.12 µM (active); in the assay on CAKI-1, 0.65 µM (active); in the assay on COLO 205, 0.906 µM (active); in the assay with HOP-92, 1.41 µM (inactive); in the assay on SK-MEL-28, 1.86 µM (inactive); with HL-60, 0.199 µM (active). Besides, the GI50 is 1.61 µM (inactive) in the assay on IGROV-1; 0.234 µM (active) in the assay on 786-0; < 0.01 µM (active) in the assay with RPMI-8226; 1.51 µM (inactive) in the assay on SN12C; 1.32 µM (inactive) in the assay on UACC-62; 1.76 µM (inactive) in the assay on EKVX. In addition, the GI50 with NCI/ADR-RES is 2.42 µM (inactive).

`CCN1/C(=C/c2ccc3ccccc3[n+]2CC)C=Cc2ccccc21`: the GI50 with PC-3 was 0.445 µM (active); in the assay on M14, 0.851 µM (active); in the assay on SNB-75 it was 0.35 µM (active); with MDA-MB-435, 0.316 µM (active); in the assay with UO-31, 3.09 µM (inactive); in the assay with A498, 2.13 µM (inactive). Moreover, the GI50 is 0.262 µM (active) with K562; 10 µM (inactive) with CAKI-1; 0.19 µM (active) in the assay on COLO 205; 1.44 µM (inactive) in the assay on HOP-92; 1.15 µM (inactive) in the assay with SK-MEL-28; 1.09 µM (active) in the assay on HL-60. Moreover, the GI50 in the assay on IGROV-1 is 2.51 µM (inactive); with 786-0, 2.32 µM (inactive); in the assay with RPMI-8226, 0.19 µM (active); in the assay with SN12C it was 0.649 µM (active); in the assay with UACC-62 it was 0.767 µM (active); with EKVX, 1.72 µM (inactive). Also, the GI50 in the assay on NCI/ADR-RES is 21.9 µM (inactive).

(Values after ChEMBL document CHEMBL1201862, “PubChem BioAssay data set” (2004).)
